Assay results published in US7767240B2, “Microbiological control in poultry processing” (priority 2001, dated 2010).
Several values for one entry are separate records, joined by “and”; a condition that tells them apart may be missing. Equal values may be shown once.

Key:
[1] = tested on: Enterococcus faecium; experiment: AOAC test method, kill of bacterial culture; format: cell-based; conditions: for concentration required to achieve complete kill within 30 seconds: Enterococcus faecium, AOAC test
Procedure: One such series of tests involved determinations of microbiological control against Escherichia coli bacteria. Another set of tests involved determinations of microbiological control against Enterococcus faecium. In each case, comparative tests were carried out in the same manner utilizing the AOAC test method. Such test involves exposing a culture of the microorganism to various concentrations of a test solution prepared from an aqueous stock solution of the compound under test. At various time intervals the halogen in the test suspensions is chemically neutralized, and the amount of viable bacteria remaining is enumerated by plating onto nutrient agar and incubating for 2 days at 37° C. Results are expressed at the log10 colony forming units (CFU). The concentration of the compound required to achieve complete kill (i.e., no viable bacteria remain) within 30 seconds is determined in the test.
Table 44 summarizes the data obtained in the tests using respectively 1,3-dibromo-5,5-dimethylhydantoin (DBDMH) and N,N-bromochloro-5,5-dimethylhydantoin (BCDMH) and in which the microorganism in each case was Enterococcus faecium.

[2] = tested on: Pseudomonas aeruginosa (ATCC 15442) biofilm; experiment: MBEC biofilm eradication test (Calgary biofilm device); format: cell-based; conditions: one-hour biocide contact time; for MBEC (minimum biofilm eradication concentration): individual determinations
Source text: Table 45 summarizes test results performed at MBEC Biofilm Technologies, Inc., Calgary, Canada on the effectiveness of various biocides on biofilm removal. The test procedure, developed at the University of Calgary, utilizes a device which allows the growth of 96 identical biofilms under carefully controlled conditions. The device consists of a two-part vessel comprised of an upper plate containing 96 pegs that seals against a bottom plate. The bottom plate can consist of either a trough (for biofilm growth) or a standard 96-well plate (for biocide challenge). The biofilms develop on the 96 pegs. The device has been used as a general method for evaluating the efficacy of antibiotics and biocides towards biofilms. See in this connection H. Ceri, et al., “The MBEC Test: A New In Vitro Assay Allowing Rapid Screening for Antibiotic Sensitivity of Biofilm”, Proceedings of the ASM, 1998, 89, 525; Ceri, et al., “Antifungal and Biocide Susceptibility testing of Candida Biofilms using the MBEC Device”, Proceedings of the Interscience Conference on Antimicrobial Agents and Chemotherapy, 1998, 38, 495; and H. Ceri, et al., “The Calgary Biofilm Device: A New Technology for the Rapid Determination of Antibiotic Susceptibility of Bacterial Biofilms”, Journal of Clinical Microbiology, 1999, 37, 1771-1776.
Six biocide systems were evaluated using the above test procedure and test equipment. Five of these systems were oxidizing biocides, viz., chlorine (from NaOCl), halogen (from NaOCl+NaBr), halogen (from BCDMH), bromine (from DBDMH), and chlorine (from trichloroisocyanuric acid), all expressed as bromine as Br2 in mg/L, so that all test results were placed on the same basis. The sixth biocide was glutaraldehyde, a non-oxidizing biocide.
These biocide systems were used to challenge biofilms of Pseudomonas aeruginosa (ATCC 15442). This is a Gram (−) bacterium which is ubiquitous in microbiological slimes found in many water systems. See in this connection J. W. Costerton and H. Anwar, “Pseudomonas aeruginosa: The Microbe and Pathogen”, in Pseudomonas aeruginosa Infections and Treatment, A. L. Baltch and R. P. Smith editors, Marcel Dekker publishers, New York, 1994. In the field of poultry processing, S. Notermans, J. Dormans, and G. C. Mead, Biofouling, 1991, Vol. 5, pages 21-36, report observation of biofilms in poultry slaughter houses by use of scanning electron microscopy.
In Table 45 the MBEC (minimum biofilm eradication concentration) results presented are for the one-hour biocide contact time used in the test. The values given for the halogen containing biocides are expressed in terms of mg/L of bromine as Br2. The data on the glutaraldehyde is in terms of mg/L as active ingredient. […] In fact, only slightly more than one-half as much bromine from DBDMH was required to remove the biofilm as compared to the total halogen, expressed as Br2, that was required from BCDMH.

[3] = 0.5 mg/L as Br2, contact time 30 sec
[4] = 0.5 mg/L as Br2, contact time 1 min
[5] = 0.5 mg/L as Br2, contact time 2 min
[6] = 0.5 mg/L as Br2, contact time 3 min
[7] = 0.5 mg/L as Br2, contact time 4 min
[8] = 0.5 mg/L as Br2, contact time 5 min
[9] = 0.5 mg/L as Br2, contact time 10 min
[10] = 1.0 mg/L as Br2, contact time 30 sec
[11] = 1.0 mg/L as Br2, contact time 1 min
[12] = 1.0 mg/L as Br2, contact time 2 min
[13] = 1.0 mg/L as Br2, contact time 3 min
[14] = 1.0 mg/L as Br2, contact time 4 min
[15] = 1.0 mg/L as Br2, contact time 5 min
[16] = 1.0 mg/L as Br2, contact time 10 min
[17] = 2.0 mg/L as Br2, contact time 30 sec
[18] = 2.0 mg/L as Br2, contact time 1 min
[19] = 2.0 mg/L as Br2, contact time 2 min
[20] = 2.0 mg/L as Br2, contact time 3 min
[21] = 2.0 mg/L as Br2, contact time 4 min
[22] = 2.0 mg/L as Br2, contact time 5 min
[23] = 2.0 mg/L as Br2, contact time 10 min

Structure (SMILES)	Log10 CFU Recovered [1, 3] [Log10 CFU]	Log10 CFU Recovered [1, 4] [Log10 CFU]	Log10 CFU Recovered [1, 5] [Log10 CFU]	Log10 CFU Recovered [1, 6] [Log10 CFU]	Log10 CFU Recovered [1, 7] [Log10 CFU]	Log10 CFU Recovered [1, 8] [Log10 CFU]	Log10 CFU Recovered [1, 9] [Log10 CFU]	Log10 CFU Recovered [1, 10] [Log10 CFU]	Log10 CFU Recovered [1, 11] [Log10 CFU]	Log10 CFU Recovered [1, 12] [Log10 CFU]	Log10 CFU Recovered [1, 13] [Log10 CFU]	Log10 CFU Recovered [1, 14] [Log10 CFU]	Log10 CFU Recovered [1, 15] [Log10 CFU]	Log10 CFU Recovered [1, 16] [Log10 CFU]	Log10 CFU Recovered [1, 17] [Log10 CFU]	Log10 CFU Recovered [1, 18] [Log10 CFU]	Log10 CFU Recovered [1, 19] [Log10 CFU]	Log10 CFU Recovered [1, 20] [Log10 CFU]	Log10 CFU Recovered [1, 21] [Log10 CFU]	Log10 CFU Recovered [1, 22] [Log10 CFU]	further results
CC1(C)C(=O)N(Cl)C(=O)N1Br [BCDMH, N,N′-bromochloro-5,5-dimethylhydantoin]	>4.48	3.53	2.63	0.00	0.00	0.00	0.00	>4.48	2.38	0.00	0.00	0.00	0.00	0.00	0.00	0.00	0.00	0.00	0.00	0.00	Log10 CFU Recovered [1, 23]: 0.00 Log10 CFU; concentration required to achieve complete kill within 30 seconds [1]: two; MBEC, avg. [2]: 2.5 mg/L of bromine as Br2; MBEC (minimum biofilm eradication concentration) [2]: 2.5, 2.5 mg/L of bromine as Br2
CC1(C)C(=O)N(Br)C(=O)N1Br [DBDMH, 1,3-dibromo-5,5-dimethylhydantoin]	4.32	2.36	0.00	0.00	0.00	0.00	0.00	0.00	0.00	0.00	0.00	0.00	0.00	0.00	0.00	0.00	0.00	0.00	0.00	0.00	Log10 CFU Recovered [1, 23]: 0.00 Log10 CFU; concentration required to achieve complete kill within 30 seconds [1]: one; MBEC, avg. [2]: 1.4 mg/L of bromine as Br2; MBEC (minimum biofilm eradication concentration) [2]: 1.4 mg/L of bromine as Br2 and 1.4, 1.4 mg/L of bromine as Br2
